pIC50: −log10 of the molar value. Read-outs that look alike come from different tables or passages of the source.

One assay has as its target KRAS G12D (Homo sapiens, UniProt P01116, G12D). In words: In-vitro RAS-RAF binding assay (RRB), HTRF/FRET. It counts as biochemical. Also noted: Biotinylated KRAS protein amino acids 1-169 (produced at Erasca); made in house. The note with it: read-out: Inhibition of RAS-RAF Binding (in-vitro) KRAS (G12D) IC50. How it is done:
(§1) Biotinylated KRAS protein amino acids 1-169 (produced at […]) is labeled with streptavidin-terbium (lanthanide cryptate donor fluorophore) in assay buffer (50 mM HEPES, pH 7.5, 100 mM NaCl, 1 mM MgCl2, 1 mM DTT) at a final concentration of 30 nM. In a separate reaction mixture, 30 nM cRAF (RBD) (Abcam, Cambridge MA) is labeled with anti-GST d2 (acceptor fluorophore). Labeling reactions are incubated for 1 hour at room temperature. […] Following the compound incubation, SOS1 catalytic domain (produced at […]) and GTPgS are added to the reaction to initiate nucleotide exchange (60 minutes exchange reaction). Once in the GTP state KRAS will bind to cRAF. No binding will occur if KRAS remains in the GDP state. Compounds may block nucleotide exchange or may create a steric obstruction to cRAF-KRAS interaction by binding to the RAS effector site. […] A portion of this mixture is transferred to a white 384-well plate (20 uL per well in duplicate) and read on an HTRF compatible plate reader (ClarioSTAR). Fluorescent resonance energy transfer (FRET) is measured at equilibrium. FRET signal will be high if KRAS-cRAF binding occurs. FRET signal will be low if KRAS-cRAF binding is inhibited by the test compound. Table 2 represents the average of multiple runs of each compound.
(In TR-FRET formats the signal depends on donor and acceptor labels being close together.)

For another assay, the target named is T1, KRAS (WT) (Homo sapiens, UniProt P01116).
T1 construct: Biotinylated KRAS protein amino acids 1-169 (produced at Erasca); made in house
In words: In-vitro RAS-RAF binding assay (RRB), HTRF/FRET. The assay is classed as biochemical. The note with it: read-out: Inhibition of RAS-RAF Binding (in-vitro) KRAS (WT) IC50. The procedure: as §1

Where [1] appears, read: Table 2, average of multiple runs of each compound.

Chain of KRAS G12D (P01116 1-169 isoform P01116-2 G12D): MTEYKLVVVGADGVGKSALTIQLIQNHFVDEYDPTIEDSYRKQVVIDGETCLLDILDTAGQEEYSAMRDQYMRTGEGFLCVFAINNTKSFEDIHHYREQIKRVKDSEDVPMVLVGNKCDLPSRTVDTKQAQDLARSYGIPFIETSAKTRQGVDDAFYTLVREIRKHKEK
T1 sequence (P01116 1-169 isoform P01116-2): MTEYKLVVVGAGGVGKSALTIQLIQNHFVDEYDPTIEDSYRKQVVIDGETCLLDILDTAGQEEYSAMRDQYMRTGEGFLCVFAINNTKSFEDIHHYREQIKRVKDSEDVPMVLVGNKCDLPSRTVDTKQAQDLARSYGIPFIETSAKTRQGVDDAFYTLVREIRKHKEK

One may read the pIC50 as the negative decadic logarithm of the IC50, by convention in mol/L. Regarding `Cc1ncsc1-c1ccc([C@H](C)NC(=O)[C@@H]2C[C@@H](O)CN2C(=O)[C@@H](NC(=O)CCCCN2CCC[C@H]2COc2nc(N3CC4CCC(C3)N4)c3cc(Cl)c(-c4ccc(F)c5sc(N)c(C#N)c45)c(F)c3n2)C(C)(C)C)cc1` [Example 84, (2S,4R)-1-((2S)-2-(5-((2S)-2-(((7-(2-amino-3-cyano-7-fluorobenzo[b]thiophen-4-yl)-4-(3,8-diazabicyclo[3.2.1]octan-3-yl)-6-chloro-8-fluoroquinazolin-2-yl)oxy)methyl)pyrrolidin-1-yl)pentanamido)-3,3-dimethylbutanoyl)-4-hydroxy-N-((S)-1-(4-(4-methylthiazol-5-yl)phenyl)ethyl)pyrrolidine-2-carboxamide], the pIC50 is 7.89 on KRAS G12D (setting [1]) and 7.16 on KRAS (WT) (setting [1]).
The matching figures for `C#Cc1c(F)ccc2cc(O)cc(-c3ncc4c(N5CC6CCC(C5)N6)nc(OCCN5CCC6(CC5)CN(c5cc([C@H](C(=O)N7C[C@H](O)C[C@H]7C(=O)N[C@@H](C)c7ccc(-c8c(F)cc(F)cc8F)cc7)C(C)C)on5)C6)nc4c3F)c12` [Example 36, (2S,4R)-1-((2R)-2-(3-(7-(2-((4-(3,8-diazabicyclo[3.2.1]octan-3-yl)-7-(8-ethynyl-7-fluoro-3-hydroxynaphthalen-1-yl)-8-fluoropyrido[4,3-d]pyrimidin-2-yl)oxy)ethyl)-2,7-diazaspiro[3.5]nonan-2-yl)isoxazol-5-yl)-3-methylbutanoyl)-4-hydroxy-N—((S)-1-(2′,4′,6′-trifluoro-[1,1′-biphenyl]-4-yl)ethyl)pyrrolidine-2-carboxamide]: 8.01 and 5.97.
For the compound `Cc1ncsc1-c1ccc([C@H](C)NC(=O)[C@@H]2C[C@@H](O)CN2C(=O)[C@@H](NC(=O)CCCCN2CCC[C@H]2COc2nc(N3CC4CCC(C3)N4)c3cnc(-c4cc(O)cc5cccc(F)c45)c(F)c3n2)C(C)(C)C)cc1` [Example 82, (2S,4R)-1-((2S)-2-(5-((2S)-2-(((4-(3,8-diazabicyclo[3.2.1]octan-3-yl)-8-fluoro-7-(8-fluoro-3-hydroxynaphthalen-1-yl)pyrido[4,3-d]pyrimidin-2-yl)oxy)methyl)pyrrolidin-1-yl)pentanamido)-3,3-dimethylbutanoyl)-4-hydroxy-N-((S)-1-(4-(4-methylthiazol-5-yl)phenyl)ethyl)pyrrolidine-2-carboxamide], the pIC50 was 8.07 at KRAS G12D (setting [1]) and 6.52 at KRAS (WT) (setting [1]).
For `C#Cc1c(F)ccc2cc(O)cc(-c3ncc4c(N5CC6CCC(C5)N6)nc(OC[C@@H]5CCCN5CCCOCCC(=O)N[C@H](C(=O)N5C[C@H](O)C[C@H]5C(=O)N[C@@H](C)c5ccc(-c6cc(F)c(F)c(F)c6)cc5)C(C)(C)C)nc4c3F)c12` [Example 52, (2S,4R)-1-((2S)-2-(3-(3-((2S)-2-(((4-(3,8-diazabicyclo[3.2.1]octan-3-yl)-7-(8-ethynyl-7-fluoro-3-hydroxynaphthalen-1-yl)-8-fluoropyrido[4,3-d]pyrimidin-2-yl)oxy)methyl)pyrrolidin-1-yl)propoxy)propanamido)-3,3-dimethylbutanoyl)-4-hydroxy-N-((S)-1-(3′,4′,5′-trifluoro-[1,1′-biphenyl]-4-yl)ethyl)pyrrolidine-2-carboxamide] the same measures were 8.11 and 6.94.
The matching figures for `C#Cc1c(F)ccc2cc(O)cc(-c3ncc4c(N5CC6CCC(C5)N6)nc(OC[C@@H]5CCCN5CCCOCCCC(=O)N[C@H](C(=O)N5C[C@H](O)C[C@H]5C(=O)N[C@@H](C)c5ccc(-c6c(F)cccc6F)cc5)C(C)(C)C)nc4c3F)c12` [Example 34, (2S,4R)-1-((2S)-2-(4-(3-((2S)-2-(((4-(3,8-diazabicyclo[3.2.1]octan-3-yl)-7-(8-ethynyl-7-fluoro-3-hydroxynaphthalen-1-yl)-8-fluoropyrido[4,3-d]pyrimidin-2-yl)oxy)methyl)pyrrolidin-1-yl)propoxy)butanamido)-3,3-dimethylbutanoyl)-N—((S)-1-(2′,6′-difluoro-[1,1′-biphenyl]-4-yl)ethyl)-4-hydroxypyrrolidine-2-carboxamide]: 8.00 and 7.20.
In the case of `C#Cc1c(F)ccc2cc(O)cc(-c3ncc4c(N5CC6CCC(C5)N6)nc(OCCN5CCC(C)(COc6cc([C@H](C(=O)N7C[C@H](O)C[C@H]7C(=O)N[C@@H](C)c7ccc(-c8c(F)cccc8F)cc7)C(C)C)on6)CC5)nc4c3F)c12` [Example 61, (2S,4R)-1-((2R)-2-(3-((1-(2-((4-(3,8-diazabicyclo[3.2.1]octan-3-yl)-7-(8-ethynyl-7-fluoro-3-hydroxynaphthalen-1-yl)-8-fluoropyrido[4,3-d]pyrimidin-2-yl)oxy)ethyl)-4-methylpiperidin-4-yl)methoxy)isoxazol-5-yl)-3-methylbutanoyl)-N-((S)-1-(2′,6′-difluoro-[1,1′-biphenyl]-4-yl)ethyl)-4-hydroxypyrrolidine-2-carboxamide], the results for the pIC50 on KRAS G12D (setting [1]) and on KRAS (WT) (setting [1]) were 8.05 and 5.92, respectively.
The matching figures for `C#Cc1c(F)ccc2cc(O)cc(-c3ncc4c(N5CC6CCC(C5)N6)nc(OC[C@@H]5CCCN5CCCOCCC(=O)N[C@H](C(=O)N5C[C@H](O)C[C@H]5C(=O)N[C@@H](C)c5ccc(-c6cccc(F)c6F)cc5)C(C)(C)C)nc4c3F)c12` [Example 51, (2S,4R)-1-((2S)-2-(3-(3-((2S)-2-(((4-(3,8-diazabicyclo[3.2.1]octan-3-yl)-7-(8-ethynyl-7-fluoro-3-hydroxynaphthalen-1-yl)-8-fluoropyrido[4,3-d]pyrimidin-2-yl)oxy)methyl)pyrrolidin-1-yl)propoxy)propanamido)-3,3-dimethylbutanoyl)-N-((S)-1-(2′,3′-difluoro-[1,1′-biphenyl]-4-yl)ethyl)-4-hydroxypyrrolidine-2-carboxamide]: 8.04 and 7.02.
As for `Cc1cc(N)nc(-c2c(Cl)cc3c(N4CC5CCC(C4)N5)nc(OC[C@@H]4CCCN4CCCCCCCN4CCC(c5cc(F)cc6c5CN(C5CCC(=O)NC5=O)C6=O)CC4)nc3c2F)c1C(F)(F)F` (stereo partly drawn) [Example 5, 3-[4-[1-[7-[(2S)-2-[[7-[6-amino-4-methyl-3-(trifluoromethyl)-2-pyridyl]-6-chloro-4-(3,8-diazabicyclo[3.2.1]octan-3-yl)-8-fluoro-quinazolin-2-yl]oxymethyl]pyrrolidin-1-yl]heptyl]-4-piperidyl]-6-fluoro-1-oxo-isoindolin-2-yl]piperidine-2,6-dione], the pIC50 at KRAS G12D (Table 1) was 7.72; at KRAS G12D (setting [1]), 7.72; at KRAS (WT) (Table 1), 5.61; at KRAS (WT) (setting [1]), 5.31.
Turning to `C[C@H](NC(=O)[C@@H]1C[C@@H](O)CN1C(=O)[C@@H](NC(=O)CCOCCCN1CCC[C@H]1COc1nc(N2CC3CCC(C2)N3)c2cc(C(F)(F)F)c(-c3ccc(F)c4sc(N)c(C#N)c34)cc2n1)C(C)(C)C)c1ccc(-c2c(F)cccc2F)cc1` [Example 21, (2S,4R)-1-((2S)-2-(3-(3-((2S)-2-(((7-(2-amino-3-cyano-7-fluorobenzo [b]thiophen-4-yl)-4-(3,8-diazabicyclo[3.2.1]octan-3-yl)-6-(trifluoromethyl)quinazolin-2-yl)oxy)methyl)pyrrolidin-1-yl)propoxy)propanamido)-3,3-dimethylbutanoyl)-N—((S)-1-(2′,6′-difluoro-[1,1′-biphenyl]-4-yl)ethyl)-4-hydroxypyrrolidine-2-carboxamide], the values for the pIC50 on KRAS G12D (setting [1]) and at KRAS (WT) (setting [1]) were 7.84 and 6.79, respectively.
Turning to `C#Cc1c(F)ccc2cc(O)cc(-c3ncc4c(N5CC6CCC(C5)N6)nc(OC[C@@H]5CCCN5CCCOCCC(=O)N[C@H](C(=O)N5C[C@H](O)C[C@H]5C(=O)N[C@@H](C)c5ccc(-c6c(F)c(F)cc(F)c6F)cc5)C(C)(C)C)nc4c3F)c12` [Example 54, (2S,4R)-1-((2S)-2-(3-(3-((2S)-2-(((4-(3,8-diazabicyclo[3.2.1]octan-3-yl)-7-(8-ethynyl-7-fluoro-3-hydroxynaphthalen-1-yl)-8-fluoropyrido[4,3-d]pyrimidin-2-yl)oxy)methyl)pyrrolidin-1-yl)propoxy)propanamido)-3,3-dimethylbutanoyl)-4-hydroxy-N-((S)-1-(2′,3′,5′,6′-tetrafluoro-[1,1′-biphenyl]-4-yl)ethyl)pyrrolidine-2-carboxamide], the pIC50 is 8.02 on KRAS G12D (setting [1]) and 7.28 at KRAS (WT) (setting [1]).

(Values after patent US20240293558A1, “KRAS INHIBITOR CONJUGATES” (Erasca, Inc., priority 2021, published 2024).)
